For data set [1] the following is noted: at 25° C.; cited from earlier work.
The text on data set [2]: Accordingly, when looking at a particular acid, the percent of ionization of that acid can be determined by the following formula: […]
For data set [3] the following is noted: cited from earlier work.

The structures appear in SMILES notation. Like-named read-outs stand apart in the source and are kept apart here.

Consider `O=C[C@H](O)[C@@H](O)[C@H](O)[C@H](O)C(=O)O` [Glucoronic, glucuronic acid], for which the pKa (usually the negative logarithm of the acid dissociation constant) in data set [1] is 3.28.
For the molecule `O=C(O)C(O)c1ccccc1` (centres unmarked) [Mandelic, mandelic acid], the pKa in data set [1] is listed as 3.85.
On to `O=C(O)c1ccccc1O` [Salicylic, salicylic acid], for which the percent ionized entry in data set [2] (in water, pH 2.2) was “approximately 9%”; in data set [2] (pH raised to 5) it was “approximately 99%”. The “pH−pKa value” is given as −0.77 in data set [2] (pH 2.2) and 2.03 in data set [2] (pH 5). Besides, in data set [3], the “normal pH in water” value is recorded as 2.2.
`NC(N)=O` [Urea]: the pKa in data set [1] was 0.10.

(Values after patent publication US20110076261A1, “Antifungal Drug Delivery System” (priority 2007, published 2011).)
